Measured values taken from patent USRE29225E, “N-substituted derivatives of 3-carboxamide and 3-thiocarboxamide” (The Dow Chemical Company, priority 1976, dated 1977).
In brackets after ≈: the same amount, converted by molar mass. Read-outs that look alike come from different tables or passages of the source.

Legend:
Assay type in all cases: cell-based
[1] = tested on: S. cerevisiae; test: agar dilution test, S. cerevisiae; settings: Saccharomyces cerevisiae, read-out: Minimum Inhibitory Concentration, Sc
Description: (§1) In representative operations, the products of the invention when tested for antimicrobial activity using conventional agar dilution tests gave complete growth inhibition against the following organisms at the indicated concentrations in parts per million: […]

[2] = tested on: S. typhosa; test: agar dilution test, S. typhosa; settings: read-out: Minimum Inhibitory Concentration, St
Description: as §1

[3] = tested on: P. aeruginosa; test: agar dilution test, P. aeruginosa; settings: Pseudomonas aeruginosa, read-out: Minimum Inhibitory Concentration, Pa
Description: as §1

[4] = tested on: A. niger; test: agar dilution test, A. niger; settings: Aspergillus niger, read-out: Minimum Inhibitory Concentration, An
Description: as §1

[5] = tested on: S. aureus; test: agar dilution test, S. aureus; settings: Staphylococcus aureus, complete growth inhibition, read-out: Minimum Inhibitory Concentration, Sa
Description: as §1

[6] = tested on: P. chrysogenum; test: agar dilution test, P. chrysogenum; settings: Penicillium chrysogenum, read-out: Minimum Inhibitory Concentration, Pen
Description: as §1

[7] = tested on: C. pelliculosa; test: agar dilution test, C. pelliculosa; settings: Hansenula anomala, read-out: Minimum Inhibitory Concentration, Cp
Description: as §1

[8] = tested on: A. aerogenes; test: agar dilution test, A. aerogenes; settings: Klebsiella aerogenes, read-out: Minimum Inhibitory Concentration, Aa
Description: as §1

[9] = S. cerevisiae, agar dilution, complete growth inhibition
[10] = P. aeruginosa, agar dilution, complete growth inhibition
[11] = A. niger, agar dilution, complete growth inhibition
[12] = P. chrysogenum, agar dilution, complete growth inhibition
[13] = C. pelliculosa, agar dilution, complete growth inhibition
[14] = A. aerogenes, agar dilution, complete growth inhibition

| SMILES | MIC [1] [mg/L] | MIC ([2]; S. typhosa, agar dilution, complete growth inhibition) [mg/L] | MIC [3] [mg/L] | MIC [4] [mg/L] | MIC [5] [mg/L] | MIC [6] [mg/L] | MIC [7] [mg/L] | MIC [8] [mg/L] | MIC [1, 9] [mg/L] | MIC [2] [mg/L] | MIC [3, 10] [mg/L] | MIC [4, 11] [mg/L] | MIC [6, 12] [mg/L] | MIC [7, 13] [mg/L] | MIC [8, 14] [mg/L] |
| --- | --- | --- | --- | --- | --- | --- | --- | --- | --- | --- | --- | --- | --- | --- | --- |
| Cl/C=C\C[N+]12CN3CN(CN(C3)C1)C2.[Cl-] [Cis, cis-1-(3-chloro-2-propenyl)-3,5,7-triaza-1-azoniatricyclo (3,3,1,1^3,7) decane chloride, reference compound] | 250 | 25 | 75 | > 500 | 50 | 500 | 500 | 50 |  |  |  |  |  |  |  |
| O=C(Nc1ccccc1)N1CN2CN(C/C=C\Cl)CN(C2)C1 [Example 1, N-Phenyl-3-Carboxamide-7-Cis(3-Chloro-2-Propenyl)-1,3,5,7-Tetraazabicyclo(3,3,1)Nonane] |  |  |  |  | 50 (≈ 155 µM) |  |  |  | 250 (≈ 777 µM) | 25 (≈ 77.7 µM) | 50 (≈ 155 µM) | 500 (≈ 1550 µM) | 250 (≈ 777 µM) | 250 (≈ 777 µM) | 50 (≈ 155 µM) |
| S=C(Nc1ccccc1)N1CN2CN(C/C=C\Cl)CN(C2)C1 [Example 2, N-Phenyl-3-.[.Thiocarboxamide.]..Iadd.Methanethioamide.Iaddend.-7-Cis-(3-Chloro-2-Propenyl)-1,3,5,7-Tetraazabicyclo(3,3,1)Nonane] |  |  |  |  | 75 (≈ 222 µM) |  |  |  | 250 (≈ 740 µM) | 25 (≈ 74 µM) | 75 (≈ 222 µM) | 250 (≈ 740 µM) | 500 (≈ 1480 µM) | > 500 | 50 (≈ 148 µM) |
| COc1ccc(NC(=O)N2CN3CN(C/C=C\Cl)CN(C3)C2)cc1 [Example 3 a)] |  |  |  |  | 50 (≈ 142 µM) |  |  |  | 250 (≈ 711 µM) | 10 (≈ 28.4 µM) | 75 (≈ 213 µM) | 500 (≈ 1420 µM) | 250 (≈ 711 µM) | 250 (≈ 711 µM) | 75 (≈ 213 µM) |
| Cc1ccc(NC(=O)N2CN3CN(C/C=C\Cl)CN(C3)C2)cc1 [Example 3 b)] |  |  |  |  | 50 (≈ 149 µM) |  |  |  | 250 (≈ 744 µM) | 25 (≈ 74.4 µM) | 50 (≈ 149 µM) | 250 (≈ 744 µM) | 100 (≈ 298 µM) | 250 (≈ 744 µM) | 50 (≈ 149 µM) |
| Cc1ccc(C)c(NC(=O)N2CN3CN(C/C=C\Cl)CN(C3)C2)c1 [Example 3 c)] |  |  |  |  | 75 (≈ 214 µM) |  |  |  | 250 (≈ 715 µM) | 50 (≈ 143 µM) | 75 (≈ 214 µM) | 500 (≈ 1430 µM) | 250 (≈ 715 µM) | 250 (≈ 715 µM) | 75 (≈ 214 µM) |
| O=C(Nc1ccc(Cl)cc1)N1CN2CN(C/C=C\Cl)CN(C2)C1 [Example 3 d)] |  |  |  |  | 75 (≈ 211 µM) |  |  |  | 250 (≈ 702 µM) | 25 (≈ 70.2 µM) | 100 (≈ 281 µM) | 500 (≈ 1400 µM) | 250 (≈ 702 µM) | 250 (≈ 702 µM) | 75 (≈ 211 µM) |
| O=C(Nc1ccc(Br)cc1)N1CN2CN(C/C=C\Cl)CN(C2)C1 [Example 3 e)] |  |  |  |  | 100 (≈ 250 µM) |  |  |  | 250 (≈ 624 µM) | 25 (≈ 62.4 µM) | 250 (≈ 624 µM) | 500 (≈ 1250 µM) | 250 (≈ 624 µM) | 250 (≈ 624 µM) | 100 (≈ 250 µM) |
| O=C(Nc1cc(Cl)ccc1Cl)N1CN2CN(C/C=C\Cl)CN(C2)C1 [Example 3 f)] |  |  |  |  | 75 (≈ 192 µM) |  |  |  | 250 (≈ 640 µM) | 50 (≈ 128 µM) | 100 (≈ 256 µM) | 500 (≈ 1280 µM) | 250 (≈ 640 µM) | 250 (≈ 640 µM) | 75 (≈ 192 µM) |
| O=C(Nc1ccc(Cl)c(Cl)c1)N1CN2CN(C/C=C\Cl)CN(C2)C1 [Example 3 g)] |  |  |  |  | 50 (≈ 128 µM) |  |  |  | 250 (≈ 640 µM) | 25 (≈ 64 µM) | 250 (≈ 640 µM) | 500 (≈ 1280 µM) | 250 (≈ 640 µM) | 250 (≈ 640 µM) | 250 (≈ 640 µM) |
| O=C(NC1CCCCC1)N1CN2CN(C/C=C\Cl)CN(C2)C1 [Example 3 h)] |  |  |  |  | 75 (≈ 229 µM) |  |  |  | 250 (≈ 763 µM) | 25 (≈ 76.3 µM) | 50 (≈ 153 µM) | 500 (≈ 1530 µM) | 250 (≈ 763 µM) | 250 (≈ 763 µM) | 50 (≈ 153 µM) |
| Cc1ccc(S(=O)(=O)NC(=O)N2CN3CN(C/C=C\Cl)CN(C3)C2)cc1 [Example 3 i)] |  |  |  |  | 250 (≈ 625 µM) |  |  |  | 500 (≈ 1250 µM) | 50 (≈ 125 µM) | 500 (≈ 1250 µM) | > 500 | 500 (≈ 1250 µM) | 500 (≈ 1250 µM) | 250 (≈ 625 µM) |
| S=C(Nc1ccc(Cl)cc1)N1CN2CN(C/C=C\Cl)CN(C2)C1 [Example 3 j)] |  |  |  |  | 75 (≈ 201 µM) |  |  |  | 250 (≈ 671 µM) | 50 (≈ 134 µM) | 100 (≈ 269 µM) | 250 (≈ 671 µM) | 100 (≈ 269 µM) | 250 (≈ 671 µM) | 75 (≈ 201 µM) |
| S=C(Nc1ccc(Br)cc1)N1CN2CN(C/C=C\Cl)CN(C2)C1 [Example 3 k)] |  |  |  |  | 250 (≈ 600 µM) |  |  |  | 500 (≈ 1200 µM) | 75 (≈ 180 µM) | 250 (≈ 600 µM) | 500 (≈ 1200 µM) | 250 (≈ 600 µM) | 250 (≈ 600 µM) | 100 (≈ 240 µM) |
| S=C(Nc1ccc(Cl)c(Cl)c1)N1CN2CN(C/C=C\Cl)CN(C2)C1 [Example 3 l)] |  |  |  |  | 50 (≈ 123 µM) |  |  |  | 250 (≈ 615 µM) | 75 (≈ 184 µM) | 100 (≈ 246 µM) | 250 (≈ 615 µM) | 100 (≈ 246 µM) | 250 (≈ 615 µM) | 100 (≈ 246 µM) |
| Cc1ccc(NC(=S)N2CN3CN(C/C=C\Cl)CN(C3)C2)cc1C [Example 3 m)] |  |  |  |  | 50 (≈ 137 µM) |  |  |  | 250 (≈ 683 µM) | 50 (≈ 137 µM) | 100 (≈ 273 µM) | 250 (≈ 683 µM) | 100 (≈ 273 µM) | 250 (≈ 683 µM) | 75 (≈ 205 µM) |
| CCCCNC(=O)N1CN2CN(C/C=C\Cl)CN(C2)C1 [Example 3 n)] |  |  |  |  | 50 (≈ 166 µM) |  |  |  | 250 (≈ 828 µM) | 25 (≈ 82.8 µM) | 75 (≈ 248 µM) | 250 (≈ 828 µM) | 250 (≈ 828 µM) | 250 (≈ 828 µM) | 50 (≈ 166 µM) |
| CCCCNC(=S)N1CN2CN(C/C=C\Cl)CN(C2)C1 [Example 3 o)] |  |  |  |  | 100 (≈ 315 µM) |  |  |  | 500 (≈ 1570 µM) | 75 (≈ 236 µM) | 250 (≈ 786 µM) | 500 (≈ 1570 µM) | 500 (≈ 1570 µM) | > 500 | 100 (≈ 315 µM) |
